The nature of data set [1]: Single ascending dose study, fasted and fed: safety and non-compartmental plasma PK. The class given is in vivo, healthy volunteers (human). Conditions: single dose, healthy volunteers. On the procedure:
A single ascending dose (SAD) study of the compound 100 was conducted in healthy volunteers. The compound 100 was administered as monotherapy both with and without food. The safety and pharmacokinetic profile of the single dose of the compound 100 was assessed.
Interim, blinded data were used for Pharmacokinetic (PK) study relating to food effects. With the exception of the 400 mg cohort, eight subjects were studied at each dose (single doses of 100, 200, or 800 mg of the sodium salt of the compound 100, which may be referred to herein as ITMN-191, administered in the fasting state). In the 400 mg cohort, ten subjects received single 400 mg doses of ITMN-191 under both fasted and fed conditions with a 5-day washout period between dosing. In the 100 mg cohort, subjects were sampled within 1 hour before dosing and at 0.5, 1, 1.5, 2, 2.5, 3, 4, 6, 8, 12, 18, 24, 32 and 48 hours after dosing. For subsequent cohorts, subjects were sampled within 1 hour before dosing and at 0.25, 0.5, 1, 1.5, 2, 2.5, 3, 4, 6, 8, 12, 18, 24, and 32 hours after dosing. Nominal (not actual) sampling times were used for the analysis. PK samples were analyzed using liquid chromatography-tandem mass spectrometry (LC/MS/MS with API 4000 mass spectrometer) following solid-phase extraction. The upper and lower limits of quantitation (ULOQ and LLOQ) are 100 and 0.01 ng/mL, respectively.
Pharmacokinetic parameter estimates were calculated using non-compartmental methods (implemented using Microsoft Excel®). Half-lives were determined by visual inspection of the log concentration-time plots to choose the terminal phase (minimum of three detectable observations). Using linear regression of the chosen terminal phase observations, elimination rate constants were calculated as the negative slope of the regression line and half-life as the natural log of 2 divided by the elimination rate constant.
Ten subjects received single 1600 mg doses of ITMN-191 under both fasted and fed conditions with a 5-day washout period between dosing. For each condition, subjects were sampled within 1 hour before dosing and at 0.25, 0.5, 1, 1.5, 2, 2.5, 3, 4, 6, 8, 12, 18, 24, and 32 hours after dosing. Pharmacokinetic parameter estimates were calculated using non-compartmental methods. Half-life (t1/2) was determined by visual inspection of the log concentration-time plots to choose the terminal phase (minimum of three detectable observations). Using linear regression of the chosen terminal phase observations, elimination rate constants were calculated as the negative slope and half-life as the natural log of 2 divided by the elimination rate constant.

The target in data set [2] is T1, NS3-NS4 (Hepatitis C virus genotype 1a, UniProt P27958). Description: cell-based. Conditions: EC50, NS3-NS4 activity.
Data set [3] has as its target T1, NS3-NS4. The experiment in a line: NS3-NS4 activity, IC50 (Example 37, Table 8). The format is biochemical.

SMILES strings stand for the structures.

T1 sequence (P27958 1027-1657): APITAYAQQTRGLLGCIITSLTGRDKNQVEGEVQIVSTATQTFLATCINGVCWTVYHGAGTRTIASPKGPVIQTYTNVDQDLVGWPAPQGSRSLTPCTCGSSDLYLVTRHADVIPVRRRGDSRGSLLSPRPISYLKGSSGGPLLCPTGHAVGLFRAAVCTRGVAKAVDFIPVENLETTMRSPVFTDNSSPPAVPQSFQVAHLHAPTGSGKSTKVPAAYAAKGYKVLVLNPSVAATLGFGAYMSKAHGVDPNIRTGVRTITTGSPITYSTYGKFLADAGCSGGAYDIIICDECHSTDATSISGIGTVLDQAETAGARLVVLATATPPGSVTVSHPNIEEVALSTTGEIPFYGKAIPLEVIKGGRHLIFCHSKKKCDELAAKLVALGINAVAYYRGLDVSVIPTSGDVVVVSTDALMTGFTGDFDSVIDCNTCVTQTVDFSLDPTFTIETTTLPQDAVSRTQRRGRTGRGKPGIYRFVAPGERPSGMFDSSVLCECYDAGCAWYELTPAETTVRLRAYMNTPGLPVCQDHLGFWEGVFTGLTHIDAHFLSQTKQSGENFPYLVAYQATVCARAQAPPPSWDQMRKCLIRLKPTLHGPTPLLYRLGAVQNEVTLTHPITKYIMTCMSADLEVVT
T1 sequence (P27958 1658-1711): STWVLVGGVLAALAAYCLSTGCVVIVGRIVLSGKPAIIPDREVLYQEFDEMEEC

In the case of `CC(C)(C)OC(=O)N[C@H]1CCCCC/C=C\[C@@H]2C[C@@]2(C(=O)NS(=O)(=O)C2CC2)NC(=O)[C@@H]2C[C@@H](OC(=O)N3Cc4cccc(F)c4C3)CN2C1=O` [compound 100], the tolerability entry in data set [1] (all doses) is listed as “well tolerated”. Besides, the “exposure when administered with food, compared to without food” value in data set [1] is recorded as “higher than anticipated exposure”.

On to `CC(C)(C)OC(=O)N[C@H]1CCCCC/C=C\[C@@H]2C[C@@]2(C(=O)NS(=O)(=O)c2ccccc2Cl)NC(=O)[C@@H]2C[C@@H](OC(=O)N3Cc4cccc(F)c4C3)CN2C1=O` [Compound 332], for which the EC50 (as a rule, the concentration at which the effect is half-maximal) on NS3-NS4 [2] was less than 100 nM. Also, on NS3-NS4 [3], the IC50 (usually the concentration that inhibits the measured activity by half) was less than 100 nM.

For the compound `O=C1N[C@]2(C(=O)NS(=O)(=O)C3CC3)C[C@H]2/C=C\CCCCC[C@H](Nc2nc(-c3ccc(C(F)(F)F)cc3)cs2)C(=O)N2C[C@H](OC(=O)N3Cc4cccc(F)c4C3)C[C@@H]12` [Compound 216], the EC50 at NS3-NS4 [2] is less than 100 nM. The IC50 against NS3-NS4 [3] is less than 100 nM.

With `CC(C)(C)OC(=O)N[C@H]1CCCCC/C=C\[C@@H]2C[C@@]2(C(=O)NS(=O)(=O)c2cc(Cl)c(Cl)s2)NC(=O)[C@@H]2C[C@@H](OC(=O)N3Cc4cccc(F)c4C3)CN2C1=O` [Compound 354], on NS3-NS4 [2], the EC50 was in the range of 100 to 1000 nM. The compound further displayed an IC50 at NS3-NS4 [3] of less than 100 nM.

In turn, `CC(C)(C)OC(=O)N[C@H]1CCCCC/C=C\[C@@H]2C[C@@]2(C(=O)NOCc2ccc(C(F)(F)F)cc2)NC(=O)[C@@H]2C[C@@H](OC(=O)N3Cc4cccc(F)c4C3)CN2C1=O` [Compound 105, (2R,6S,13aS,14aR,16aS,Z)-6-(tert-butoxycarbonylamino)-5,16-dioxo-14a-(4-(trifluoromethyl)benzyloxycarbamoyl)-1,2,3,5,6,7,8,9,10,11,13a,14,14a,15,16,16a-hexadecahydrocyclopropa[e]pyrrolo[1,2-a][1,4]diazacyclopentadecin-2-yl 4-fluoroisoindoline-2-carboxylate] yielded an EC50 at NS3-NS4 [2] of 10000 to 50000 nM. Further, on NS3-NS4 [3], the IC50 was less than 100 nM.

`O=C1N[C@]2(C(=O)NS(=O)(=O)C3CC3)C[C@H]2/C=C\CCCCC[C@H](Nc2nc3c(s2)CCC3)C(=O)N2C[C@H](OC(=O)N3Cc4cccc(F)c4C3)C[C@@H]12` [Compound 206] showed an EC50 on NS3-NS4 [2] of 100 to 1000 nM. At NS3-NS4 [3], this compound displayed an IC50 of less than 100 nM.

For `C=CCC1(S(=O)(=O)NC(=O)[C@@]23C[C@H]2CCCCCCC[C@H](NC(=O)OC(C)(C)C)C(=O)N2C[C@H](OC(=O)N4Cc5cccc(F)c5C4)C[C@H]2C(=O)N3)CC1` [Compound 649], the EC50 at NS3-NS4 [2] was less than 100 nM. The IC50 against NS3-NS4 [3] is less than 100 nM.

On NS3-NS4 [2], `CC(C)(C)OC(=O)N[C@H]1CCCCC/C=C\[C@@H]2C[C@@]2(C(=O)NS(=O)(=O)Cc2ccc(F)cc2)NC(=O)[C@@H]2C[C@@H](OC(=O)N3Cc4cccc(F)c4C3)CN2C1=O` [Compound 509] showed an EC50 of 100 to 1000 nM. For the same compound, at NS3-NS4 [3], the IC50 is less than 100 nM.

Regarding `CC(C)(C)OC(=O)N[C@H]1CCCCC/C=C\[C@@H]2C[C@@]2(C(=O)NS(=O)(=O)c2cccnc2Cl)NC(=O)[C@@H]2C[C@@H](OC(=O)N3Cc4cccc(F)c4C3)CN2C1=O` [Compound 529], the EC50 on NS3-NS4 [2] is less than 100 nM. The IC50 against NS3-NS4 [3] was less than 100 nM.

`CC(C)(C)OC(=O)N[C@H]1CCCCC/C=C\[C@@H]2C[C@@]2(C(=O)NS(=O)(=O)Cc2ccc(Cl)c(Cl)c2)NC(=O)[C@@H]2C[C@@H](OC(=O)N3Cc4cccc(F)c4C3)CN2C1=O` [Compound 526] showed an EC50 at NS3-NS4 [2] of 100 to 1000 nM. This compound also returned an IC50 against NS3-NS4 [3] of less than 100 nM.

In the case of `CC(C)(C)OC(=O)N[C@H]1CCCCC/C=C\[C@@H]2C[C@@]2(C(=O)NS(=O)(=O)Cc2ccccc2F)NC(=O)[C@@H]2C[C@@H](OC(=O)N3Cc4cccc(F)c4C3)CN2C1=O` [Compound 507], the EC50 at NS3-NS4 [2] was less than 100 nM. At NS3-NS4 [3], the IC50 was less than 100 nM.

Values taken from patent US20090155209A1, “NOVEL MACROCYCLIC INHIBITORS OF HEPATITIS C VIRUS REPLICATION” (priority 2007, published 2009).
